Consider 1 compound from US20130303605A1, “EXTERNAL COMPOSITION FOR SKIN CONTAINING MANASSANTIN B AS ACTIVE INGREDIENT AND THE USE THEREOF FOR SKIN WHITENING” (Amorepacific Corporation, priority 2006, published 2013).

One assay relates to melan-a cells. Kind of assay: Inhibition of melanosome transfer at cell level (optical microscope observation). The assay is classed as cell-based, mouse. Particulars: various concentrations, after 4 days, optical microscope (FIG. 1). The method, then: Melan-a Cells, Immortalized Mouse Melanocytes, Were cultured to a confluency of 90% in 10% fetal bovine serum-containing RPMI 1640 medium in a 10% CO2 incubator, while the medium was replaced with fresh medium at 3-day intervals.
The melan-a cells cultured in the step 1 were separated using 0.25% trypsin-EDTA and spread on a 6-well plate at a density of 3×10^5 cells/well. Then, the cells were left to stand for 24 hours.

Assay [1] deals with melanophilin and myosin 5a. In words: Inhibition of binding between melanophilin and myosin 5a (plate binding, chemiluminescence). The conditions noted are these: his-GFP-mlphCT on nickel-coated plate, Flag-MyosinVa GT, chemiluminescence (FIG. 2). The text has this:
Proteins required in the test were produced in large amounts using a suitable system (E. coli) or baculovirus. Herein, the designed proteins essentially included domains known to be required for protein interaction and contained GST, His tag or flag tag such that the produced proteins could be easily purified and isolated. Each of a histidine tagged-GFP-melanophilin recombinant protein and a Flag-MyosinVa recombinant protein, which were to be used as bait proteins, were expressed in a baculovirus system, cells containing the proteins were disrupted, and then extracts were prepared. Flag-MyosinVa GT was prepared into an extract with PBS TG buffer solution, and then purified by flag-affinity chromatography.
The his-GFP-mlphCT protein prepared in the step 1 was bound to a nickel-coated plate through reaction. To the plate, binding partner Flag-MyosinVa GT was bound, and then an M2 antibody recognizing the flag was bound. The plate was subjected to color development reaction by chemiluminescence to measure the degree of binding between the proteins.

A further assay addresses T1, tyrosinase (Mus musculus, UniProt P11344).
T1 construct: disrupted with 0.1M phosphate buffer (containing 1% triton x-100); endogenous in cells; host or cells: cultured melanocytes (melan-a), cell lysate supernatant
T1 sequence (P11344 19-533): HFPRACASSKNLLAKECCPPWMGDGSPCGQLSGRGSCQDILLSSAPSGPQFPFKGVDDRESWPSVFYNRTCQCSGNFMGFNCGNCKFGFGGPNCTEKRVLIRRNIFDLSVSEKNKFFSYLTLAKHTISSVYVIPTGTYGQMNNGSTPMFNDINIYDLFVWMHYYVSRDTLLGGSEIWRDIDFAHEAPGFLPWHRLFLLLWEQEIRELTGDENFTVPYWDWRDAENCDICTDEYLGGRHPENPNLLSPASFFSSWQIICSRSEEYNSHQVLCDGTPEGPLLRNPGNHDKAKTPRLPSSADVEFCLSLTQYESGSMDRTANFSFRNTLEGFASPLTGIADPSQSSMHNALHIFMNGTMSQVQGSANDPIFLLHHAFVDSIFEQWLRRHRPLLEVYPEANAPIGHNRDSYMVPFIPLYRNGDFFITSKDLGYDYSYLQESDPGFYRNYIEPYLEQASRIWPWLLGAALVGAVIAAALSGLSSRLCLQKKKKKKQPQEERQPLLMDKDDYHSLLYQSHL
In words: Tyrosinase activity inhibition in melanocyte lysate (L-DOPA, absorbance 490 nm). The assay is classed as biochemical. Particulars: melan-a cell lysate, 1 hour with various concentrations, absorbance at 490 nm (FIG. 3). How it is done: Melanocytes were cultured in the same manner as in the step 1 of Test Example 1.
The cells cultured in the step 1 were washed once with cold PBS, and then disrupted with 0.1M phosphate buffer (containing 1% triton x-100). Then, the cells were centrifuged at 1400 rpm for 20 minutes, and the cell supernatant was isolated. 40 μg of the protein thus prepared was mixed with various concentrations of manassantin B and allowed to react for 1 hour. The reaction material was treated with 2 mg/ml of L-DOPA solution and left to stand 37° C.

Assay [2] relates to melan-a cells and SP-1 cells. Kind of assay: Inhibition of melanin synthesis in coculture of melanocytes and keratinocytes. The assay is classed as cell-based, mouse. The method, then: Melanocytes were cultured in the same manner as in the step 1 of Test Example 1. Mouse keratinocytes SP-1 cells were cultured to a confluency of […] in 8% fetal bovine serum-containing s-MEM medium in a 10% CO2 incubator, while the medium was replaced with fresh medium at 3-days intervals.
The melan-a cells and SP-1 cells cultured in the step were separated with 0.25% Trypsin-EDTA and spread together on a 12-well plate at a ratio of 1:10 at cell densities of 1×10^4 cells/well for melan-a and 1×10^5 cells/well for SP-1. Then, the cells were left to stand for 24 hours. The cells were treated with manassantin B at various concentrations, and after 5 days, the cells were collected with 1N NaOH. The collected cells were measured for absorbance at 405 nm and measured for protein concentration using the Lowry method.

Assay [3] deals with acyl CoA cholesterol acyltransferase. The conditions noted are these: Korean Patent Application No. 10-2003-0080397; cited from earlier work.

Broadly, the inhibition is the relative decrease from the control value, in per cent. Low values mean a response near the control, high ones a response far below the control. As to `COc1ccc([C@@H](O)[C@@H](C)Oc2ccc([C@H]3O[C@H](c4ccc(O[C@H](C)[C@H](O)c5ccc6c(c5)OCO6)c(OC)c4)[C@H](C)[C@H]3C)cc2OC)cc1OC` [manassantin B], the “configuration of the cells / distribution (transfer) of melanosomes” value in the assay on melan-a cells was “melanosomes were gathered together around the nuclei”. Moreover, the “degree of binding between melanophilin and myosin 5a” value in assay [1] is reported as “inhibited the binding”. The “inhibition of tyrosinase activity” value on tyrosinase is listed as “did not directly inhibit”. In addition, the inhibition at 0.02 ppm in assay [2] (Mus musculus, 120 h, coculture melan-a:SP-1 1:10, 5 days, manassantin B concentration of 0.02 ppm) is ~50%. The “inhibition of melanin synthesis” value in assay [2] (coculture melan-a:SP-1 1:10, various concentrations, 5 days (FIG. 4)) is “inhibited melanin synthesis in a concentration-dependent manner”. Further, in assay [3], the “inhibition of activity of acyl CoA cholesterol acyltransferase” value is given as “inhibit the activity of acyl CoA cholesterol acyltransferase”.
